US10112906B2, “1-aryl-3-alkylpyrazole insecticides” (E. I. DU PONT DE NEMOURS AND COMPANY, priority 2013, dated 2018)

What was measured:
Format in all cases: in vivo
[1] = test system: diamondback moth (Plutella xylostella (L.)); assay: Test A: control of diamondback moth, foliar spray on mustard plant; conditions: neonate larvae, assessed after 6 days
Description: (§1) Test compounds were formulated using a solution containing 10% acetone, 90% water and 300 ppm X-77® Spreader Lo-Foam Formula non-ionic surfactant containing alkylarylpolyoxyethylene, free fatty acids, glycols and isopropanol (Loveland Industries, Inc. Greeley, Colo., USA). The formulated compounds were applied in 1 mL of liquid through a SUJ2 atomizer nozzle with ⅛ JJ custom body (Spraying Systems Co. Wheaton, Ill., USA) positioned 1.27 cm (0.5 inches) above the top of each test unit. Test compounds were sprayed at the rates indicated, and each test was replicated three times.
For evaluating control of diamondback moth (Plutella xylostella (L.)) the test unit consisted of a small open container with a 12-14-day-old mustard plant inside. This was pre-infested with ˜50 neonate larvae that were dispensed into the test unit via corn cob grits using an inoculator. The larvae moved onto the test plant after being dispensed into the test unit.
Test compounds were formulated and sprayed at 250 and/or 50 ppm. After spraying of the formulated test compound, each test unit was allowed to dry for 1 hour and then a black, screened cap was placed on top. The test units were held for 6 days in a growth chamber at 25° C. and 70% relative humidity. Plant feeding damage was then visually assessed based on foliage consumed, and larvae were assessed for mortality.

[2] = test system: green peach aphid (Myzus persicae (Sulzer)); assay: Test E: control of green peach aphid through contact and/or systemic means; conditions: 144 h, radish plant, assessed after 6 days; for mortality at 250 ppm: sprayed at 250 ppm
Description: as §1
For evaluating control of green peach aphid (Myzus persicae (Sulzer)) through contact and/or systemic means, the test unit consisted of a small open container with a 12-15-day-old radish plant inside. This was pre-infested by placing on a leaf of the test plant 30-40 aphids on a piece of leaf excised from a culture plant (cut-leaf method). The aphids moved onto the test plant as the leaf piece desiccated. After pre-infestation, the soil of the test unit was covered with a layer of sand.
Test compounds were formulated and sprayed at 250 and/or 50 ppm. After spraying of the formulated test compound, each test unit was allowed to dry for 1 hour and then a black, screened cap was placed on top. The test units were held for 6 days in a growth chamber at 19-21° C. and 50-70% relative humidity. Each test unit was then visually assessed for insect mortality.

[3] = test system: potato leafhopper (Empoasca fabae (Harris)); assay: Test D: control of potato leafhopper through contact and/or systemic means; conditions: 144 h, Soleil bean plant, adults, assessed after 6 days; for mortality at 250 ppm: sprayed at 250 ppm
Description: as §1
For evaluating control of potato leafhopper (Empoasca fabae (Harris)) through contact and/or systemic means, the test unit consisted of a small open container with a 5-6-day-old Soleil bean plant (primary leaves emerged) inside. White sand was added to the top of the soil, and one of the primary leaves was excised prior to application of the test compound.
Test compounds were formulated and sprayed at 250 and/or 50 ppm. After spraying of the formulated test compound, the test units were allowed to dry for 1 hour before they were post-infested with 5 potato leafhoppers (18-to-21-day-old adults). A black, screened cap was placed on the top of the test unit, and the test units were held for 6 days in a growth chamber at 20° C. and 70% relative humidity. Each test unit was then visually assessed for insect mortality.

[4] = test system: Western Flower Thrips (Frankliniellla occidentalis (Pergande)); assay: Test F: control of Western Flower Thrips through contact and/or systemic means; conditions: sprayed at 250 ppm; Soleil bean plant, adult thrips; held for 6 days
Description: as §1
For evaluating control of the Western Flower Thrips (Frankliniellla occidentalis (Pergande)) through contact and/or systemic means, the test unit consisted of a small open container with a 5-7-day-old Soleil bean plant inside.
Test compounds were formulated and sprayed at 250 ppm. After spraying, the test units were allowed to dry for 1 hour, and then 22-27 adult thrips were added to each unit. A black, screened cap was placed on top, and the test units were held for 6 days at 25° C. and 45-55% relative humidity.

[5] = test system: fall armyworm (Spodoptera frugiperda (J. E. Smith)); assay: Test B: control of fall armyworm, foliar spray on corn (maize) plant; conditions: 1-day-old larvae, assessed after 6 days
Description: as §1
For evaluating control of fall armyworm (Spodoptera frugiperda (J. E. Smith)) the test unit consisted of a small open container with a 4-5-day-old corn (maize) plant inside. This was pre-infested with 10-15 1-day-old larvae on a piece of insect diet.
Test compounds were formulated and sprayed at 250 and/or 50 ppm. After spraying of the formulated test compound, the test units were maintained in a growth chamber for 6 days at 25° C. and 70% relative humidity. Plant feeding damage was then visually assessed based on foliage consumed, and larvae were assessed for mortality.

[6] = test system: corn planthopper (Peregrinus maidis (Ashmead)); assay: Test C: control of corn planthopper through contact and/or systemic means; conditions: 144 h, sprayed at 250 ppm, corn (maize) plant, nymphs, assessed after 6 days
Description: as §1
For evaluating control of corn planthopper (Peregrinus maidis (Ashmead)) through contact and/or systemic means, the test unit consisted of a small open container with a 3-4-day-old corn (maize) plant inside. White sand was added to the top of the soil prior to application of the test compound.
Test compounds were formulated and sprayed at 250 and/or 50 ppm. After spraying of the formulated test compound, the test units were allowed to dry for 1 h before they were post-infested with ˜15-20 nymphs (18-to-21-day-old). A black, screened cap was placed on the top of each test unit, and the test units were held for 6 days in a growth chamber at 22-24° C. and 50-70% relative humidity. Each test unit was then visually assessed for insect mortality.

Structure (SMILES)	control efficacy (40% or less feeding damage and/or 100% mortality) ([1]; sprayed at 50 ppm)	control efficacy (40% or less feeding damage and/or 100% mortality) ([1]; sprayed at 250 ppm)	mortality at 50 ppm ([2]; sprayed at 50 ppm)	mortality at 250 ppm [2]	mortality at 250 ppm [3]	control efficacy (30% or less plant damage and/or 100% mortality) [4]	control efficacy (40% or less feeding damage and/or 100% mortality) ([5]; sprayed at 50 ppm)	control efficacy (40% or less feeding damage and/or 100% mortality) ([5]; sprayed at 250 ppm)	mortality at 50 ppm ([3]; sprayed at 50 ppm)	mortality at 250 ppm [6]
N#CC1CCN(Cc2cn(-c3cc(C(F)(F)F)ccn3)nc2C2CCCC2)CC1 [Compound 26, 1-[[3-cyclopentyl-1-[4-(trifluoromethyl)-2-pyridinyl]-1H-pyrazol-4-yl]methyl]-4-piperidinecarbonitrile]	very good to excellent levels of control efficacy	very good to excellent levels of control efficacy	≥ 80%	≥ 80%	≥ 80%	very good to excellent levels of control efficacy	very good to excellent levels of control efficacy	very good to excellent levels of control efficacy		
N#CC1CCN(Cc2cn(-c3ccc(Cl)c(Cl)c3)nc2C2CCC2)CC1 [Compound 27]	very good to excellent levels of control efficacy	very good to excellent levels of control efficacy				very good to excellent levels of control efficacy	very good to excellent levels of control efficacy	very good to excellent levels of control efficacy		
FC(F)(F)c1ccnc(-n2cc(CN3CCC(C(F)(F)F)CC3)c(C3CCCC3)n2)c1 [Compound 25, 2-[3-cyclopentyl-4-[[4-(trifluoromethyl)-1-piperidinyl]methyl]-1H-pyrazol-1-yl]-4-(trifluoromethyl)pyridine]	very good to excellent levels of control efficacy	very good to excellent levels of control efficacy		≥ 80%	≥ 80%	very good to excellent levels of control efficacy	very good to excellent levels of control efficacy	very good to excellent levels of control efficacy	≥ 80%	≥ 80%
